In the supplement of paper PMC10307832:

Experiments:
Experiment in all cases: relative viability (nuclei count vs DMSO), 5 days (fraction); higher = more cells survive
NCI-H596 = tested on: NCI-H596
Outline: (§1)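 Dosing by pin tool came one day after lung cancer cell lines were seeded in 1536-well plates, using either one drug or a fixed anchor-drug dose plus five library-drug doses (not always all listed) in √10 steps. After 5 days, nuclei were counted on 4× images. Relative viability is treated-well nuclei count divided by vehicle-well nuclei count, and values are medians of duplicate plates.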

BEN = tested on: BEN
Outline: as §1

NCI-H2087 = tested on: NCI-H2087
Outline: as §1

NCI-H727 = tested on: NCI-H727
Outline: as §1

NCI-H3122 = tested on: NCI-H3122
Outline: as §1

NCI-H23 = tested on: NCI-H23
Outline: as §1

EMC-BAC-2 = tested on: EMC-BAC-2
Outline: as §1

NCI-H647 = tested on: NCI-H647
Outline: as §1

HARA = tested on: HARA
Outline: as §1

NCI-H838 = tested on: NCI-H838
Outline: as §1

HCC-44 = tested on: HCC-44
Outline: as §1

NCI-H2126 = tested on: NCI-H2126
Outline: as §1

LCLC-103H = tested on: LCLC-103H
Outline: as §1

NCI-H2023 = tested on: NCI-H2023
Outline: as §1

201T = tested on: 201T
Outline: as §1

NCI-H441 = tested on: NCI-H441
Outline: as §1

NCI-H650 = tested on: NCI-H650
Outline: as §1

LOU-NH91 = tested on: LOU-NH91
Outline: as §1

NCI-H1395 = tested on: NCI-H1395
Outline: as §1

NCI-H2347 = tested on: NCI-H2347
Outline: as §1

NCI-H1993 = tested on: NCI-H1993
Outline: as §1

COc1nc(C)cnc1NS(=O)(=O)c1cccnc1-c1ccc(-c2nnco2)cc1 [Zibotentan] + Cc1nc(NC(=O)N2CCC[C@H]2C(N)=O)sc1-c1ccnc(C(C)(C)C(F)(F)F)c1 [Alpelisib] (partner 2 µM)
relative viability (NCI-H596; first compound 0.08 µM): 0.532
relative viability (NCI-H596; first compound 0.253 µM): 0.482
relative viability (NCI-H596; first compound 0.8 µM): 0.485
relative viability (NCI-H596; first compound 2.53 µM): 0.484
relative viability (BEN; first compound 0.08 µM): 1.17
relative viability (BEN; first compound 0.253 µM): 0.955
relative viability (BEN; first compound 0.8 µM): 1.02
relative viability (BEN; first compound 2.53 µM): 0.922
relative viability (NCI-H2087; first compound 0.08 µM): 1.06
relative viability (NCI-H2087; first compound 0.253 µM): 1.13
relative viability (NCI-H2087; first compound 0.8 µM): 1.03
relative viability (NCI-H2087; first compound 2.53 µM): 1.05
relative viability (NCI-H727; first compound 0.08 µM): 0.483
relative viability (NCI-H727; first compound 0.253 µM): 0.794
relative viability (NCI-H727; first compound 0.8 µM): 0.55
relative viability (NCI-H727; first compound 2.53 µM): 0.643
relative viability (NCI-H3122; first compound 0.08 µM): 0.801
relative viability (NCI-H3122; first compound 0.253 µM): 0.773
relative viability (NCI-H3122; first compound 0.8 µM): 0.76
relative viability (NCI-H3122; first compound 2.53 µM): 0.822
relative viability (NCI-H23; first compound 0.08 µM): 0.679
relative viability (NCI-H23; first compound 0.253 µM): 0.7
relative viability (NCI-H23; first compound 0.8 µM): 0.681
relative viability (NCI-H23; first compound 2.53 µM): 0.726
relative viability (EMC-BAC-2; first compound 0.08 µM): 0.78
relative viability (EMC-BAC-2; first compound 0.253 µM): 0.72
relative viability (EMC-BAC-2; first compound 0.8 µM): 0.714
relative viability (EMC-BAC-2; first compound 2.53 µM): 0.782
relative viability (NCI-H647; first compound 0.08 µM): 1.29
relative viability (NCI-H647; first compound 0.253 µM): 0.92
relative viability (NCI-H647; first compound 0.8 µM): 1.28
relative viability (NCI-H647; first compound 2.53 µM): 1.24
relative viability (HARA; first compound 0.08 µM): 0.856
relative viability (HARA; first compound 0.253 µM): 0.764
relative viability (HARA; first compound 0.8 µM): 0.686
relative viability (HARA; first compound 2.53 µM): 0.89
relative viability (NCI-H838; first compound 0.08 µM): 0.957
relative viability (NCI-H838; first compound 0.253 µM): 1.01
relative viability (NCI-H838; first compound 0.8 µM): 0.956
relative viability (NCI-H838; first compound 2.53 µM): 1.05
relative viability (HCC-44; first compound 0.08 µM): 0.932
relative viability (HCC-44; first compound 0.253 µM): 0.768
relative viability (HCC-44; first compound 0.8 µM): 0.842
relative viability (HCC-44; first compound 2.53 µM): 0.842
relative viability (NCI-H2126; first compound 0.08 µM): 0.827
relative viability (NCI-H2126; first compound 0.253 µM): 0.755
relative viability (NCI-H2126; first compound 0.8 µM): 0.726
relative viability (NCI-H2126; first compound 2.53 µM): 0.762
relative viability (LCLC-103H; first compound 0.08 µM): 0.955
relative viability (LCLC-103H; first compound 0.253 µM): 0.969
relative viability (LCLC-103H; first compound 0.8 µM): 1.01
relative viability (LCLC-103H; first compound 2.53 µM): 1.05
relative viability (NCI-H2023; first compound 0.08 µM): 0.632
relative viability (NCI-H2023; first compound 0.253 µM): 0.485
relative viability (NCI-H2023; first compound 0.8 µM): 0.658
relative viability (NCI-H2023; first compound 2.53 µM): 0.591
relative viability (201T; first compound 0.08 µM): 1.05
relative viability (201T; first compound 0.253 µM): 0.993
relative viability (201T; first compound 0.8 µM): 1.1
relative viability (201T; first compound 2.53 µM): 1.11
relative viability (NCI-H441; first compound 0.08 µM): 0.757
relative viability (NCI-H441; first compound 0.8 µM): 0.776
relative viability (NCI-H441; first compound 2.53 µM): 0.779
relative viability (NCI-H650; first compound 0.08 µM): 1.13
relative viability (NCI-H650; first compound 0.253 µM): 1.06
relative viability (NCI-H650; first compound 0.8 µM): 1.03
relative viability (NCI-H650; first compound 2.53 µM): 1.16
relative viability (LOU-NH91; first compound 0.08 µM): 0.749
relative viability (LOU-NH91; first compound 0.253 µM): 0.696
relative viability (LOU-NH91; first compound 0.8 µM): 0.785
relative viability (LOU-NH91; first compound 2.53 µM): 0.702
relative viability (NCI-H1395; first compound 0.08 µM): 1.28
relative viability (NCI-H1395; first compound 0.253 µM): 0.993
relative viability (NCI-H1395; first compound 0.8 µM): 1.18
relative viability (NCI-H1395; first compound 2.53 µM): 1.42
relative viability (NCI-H2347; first compound 0.08 µM): 1.15
relative viability (NCI-H2347; first compound 0.253 µM): 1.04
relative viability (NCI-H2347; first compound 0.8 µM): 1.09
relative viability (NCI-H2347; first compound 2.53 µM): 1.08
relative viability (NCI-H1993; first compound 0.253 µM): 0.679
relative viability (NCI-H1993; first compound 0.8 µM): 0.652
relative viability (NCI-H1993; first compound 2.53 µM): 0.766
